Experimental data published in PubChem BioAssay AID1963841 (Molecular Pharmacology Branch, DTP, NCI, 2024).

System: 439559-082-T-J2-PDC spheroid viability
Assay: Anticancer human tumor 439559-082-T-J2-PDC patient-derived colon adenocarcinoma cell line growth inhibition [POLQ]
Conditions: spheroids with HUVEC and MSC; for IC50: curve of first compound; for viability, T/C: stronger effect = lower value
In short: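 Growth inhibition in 3D: complex spheroids (tumor PDC, HUVEC, MSC) treated with POLQ inhibitor combinations; where Cmax unknown, highest tested concentration 10 microM, except SN-38 at 1 microM.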

[1] = second compound 0.0316 µM, first compound 0.0316 µM
[2] = second compound 0.0316 µM, first compound 0.1 µM
[3] = second compound 0.0316 µM, first compound 0.316 µM
[4] = second compound 0.0316 µM, first compound 1 µM
[5] = second compound 0.0316 µM, first compound 3.16 µM
[6] = second compound 0.0316 µM, first compound 10 µM
[7] = second compound 0.1 µM, first compound 0.0316 µM
[8] = second compound 0.1 µM, first compound 0.1 µM
[9] = second compound 0.1 µM, first compound 0.316 µM
[10] = second compound 0.1 µM, first compound 1 µM
[11] = second compound 0.1 µM, first compound 3.16 µM
[12] = second compound 0.1 µM, first compound 10 µM
[13] = second compound 0.316 µM, first compound 0.0316 µM
[14] = second compound 0.316 µM, first compound 0.1 µM
[15] = second compound 0.316 µM, first compound 0.316 µM
[16] = second compound 0.316 µM, first compound 1 µM
[17] = second compound 0.316 µM, first compound 3.16 µM
[18] = second compound 0.316 µM, first compound 10 µM
[19] = second compound 1 µM, first compound 0.0316 µM
[20] = second compound 1 µM, first compound 0.1 µM
[21] = second compound 1 µM, first compound 0.316 µM
[22] = second compound 1 µM, first compound 1 µM
[23] = second compound 1 µM, first compound 3.16 µM
[24] = second compound 1 µM, first compound 10 µM
[25] = second compound 3.16 µM, first compound 0.0316 µM
[26] = second compound 3.16 µM, first compound 0.1 µM
[27] = second compound 3.16 µM, first compound 0.316 µM
[28] = second compound 3.16 µM, first compound 1 µM
[29] = second compound 3.16 µM, first compound 3.16 µM
[30] = second compound 3.16 µM, first compound 10 µM
[31] = second compound 10 µM, first compound 0.0316 µM
[32] = second compound 10 µM, first compound 0.1 µM
[33] = second compound 10 µM, first compound 0.316 µM
[34] = second compound 10 µM, first compound 1 µM
[35] = second compound 10 µM, first compound 3.16 µM
[36] = second compound 10 µM, first compound 10 µM
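Note: spheroids exposed to compounds for seven days before readout.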
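Throughout, for viability, T/C: 100% = DMSO vehicle control viability.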

COc1cccc2c1C(=O)c1c(O)c3c(c(O)c1C2=O)CC(O)(C(=O)CO)CC3OC1CC(N)C(O)C(C)O1 (stereo not drawn) + Nc1ccc(C#CCN(C(=O)Cc2ncc(C(F)(F)F)cc2C(F)(F)F)c2ccc(F)cc2)nn1
IC50 (second compound 0.0316 µM): > 10 µM | IC50 (second compound 0.1 µM): > 10 µM | IC50 (second compound 0.316 µM): > 10 µM | IC50 (second compound 1 µM): > 10 µM | IC50 (second compound 3.16 µM): > 10 µM | IC50 (second compound 10 µM): 7.09 µM | viability, T/C [1]: 90.2% | viability, T/C [2]: 83.1% | viability, T/C [3]: 79.2% | viability, T/C [4]: 67.8% | viability, T/C [5]: 60.7% | viability, T/C [6]: 60.5% | viability, T/C [7]: 99.9% | viability, T/C [8]: 98.4% | viability, T/C [9]: 79.8% | viability, T/C [10]: 66.5% | viability, T/C [11]: 58.9% | viability, T/C [12]: 65.1% | viability, T/C [13]: 94.7% | viability, T/C [14]: 82.5% | viability, T/C [15]: 78.7% | viability, T/C [16]: 59.3% | viability, T/C [17]: 58.1% | viability, T/C [18]: 66.7% | viability, T/C [19]: 103% | viability, T/C [20]: 85.5% | viability, T/C [21]: 74.6% | viability, T/C [22]: 64% | viability, T/C [23]: 57.2% | viability, T/C [24]: 55.8% | viability, T/C [25]: 87.5% | viability, T/C [26]: 83.2% | viability, T/C [27]: 61.2% | viability, T/C [28]: 62.4% | viability, T/C [29]: 67.2% | viability, T/C [30]: 57.7% | viability, T/C [31]: 78.8% | viability, T/C [32]: 74.2% | viability, T/C [33]: 70.8% | viability, T/C [34]: 59.7% | viability, T/C [35]: 62.6% | viability, T/C [36]: 45.1%

CCc1cc2c(N3CCc4c(cc(Cn5ccnc5)cc4-c4cn(C)nc4C(F)(F)F)C3=O)ccnc2c(OC)n1 + COC1C(OC(N)=O)C(O)C(Oc2ccc3c(O)c(NC(=O)c4ccc(O)c(CC=C(C)C)c4)c(=O)oc3c2C)OC1(C)C
IC50 (second compound 0.0316 µM): > 10 µM | IC50 (second compound 0.1 µM): > 10 µM | IC50 (second compound 0.316 µM): > 10 µM | IC50 (second compound 1 µM): > 10 µM | IC50 (second compound 3.16 µM): > 10 µM | IC50 (second compound 10 µM): > 10 µM | viability, T/C [1]: 95.2% | viability, T/C [2]: 104% | viability, T/C [3]: 97.5% | viability, T/C [4]: 95.2% | viability, T/C [5]: 91.6% | viability, T/C [6]: 95.3% | viability, T/C [7]: 100% | viability, T/C [8]: 103% | viability, T/C [9]: 96.1% | viability, T/C [10]: 90.7% | viability, T/C [11]: 99.2% | viability, T/C [12]: 95.2% | viability, T/C [13]: 107% | viability, T/C [14]: 107% | viability, T/C [15]: 101% | viability, T/C [16]: 109% | viability, T/C [17]: 91.5% | viability, T/C [18]: 90.3% | viability, T/C [19]: 110% | viability, T/C [20]: 106% | viability, T/C [21]: 99.4% | viability, T/C [22]: 92.9% | viability, T/C [23]: 93.1% | viability, T/C [24]: 87.6% | viability, T/C [25]: 99.6% | viability, T/C [26]: 109% | viability, T/C [27]: 99.4% | viability, T/C [28]: 92% | viability, T/C [29]: 93% | viability, T/C [30]: 89.6% | viability, T/C [31]: 106% | viability, T/C [32]: 93.7% | viability, T/C [33]: 99.1% | viability, T/C [34]: 101% | viability, T/C [35]: 102% | viability, T/C [36]: 94.5%

O=C(c1cc(Cc2n[nH]c(=O)c3ccccc23)ccc1F)N1CCN(C(=O)C2CC2)CC1 + Cc1cccc(N(C)C(=O)C2C(O)CCN2c2nc(C)cc(C(F)(F)F)c2C#N)c1
IC50 (second compound 0.0316 µM): > 10 µM | IC50 (second compound 0.1 µM): > 10 µM | IC50 (second compound 0.316 µM): > 10 µM | IC50 (second compound 1 µM): > 10 µM | IC50 (second compound 3.16 µM): > 10 µM | IC50 (second compound 10 µM): > 10 µM | viability, T/C [1]: 95.8% | viability, T/C [2]: 103% | viability, T/C [3]: 107% | viability, T/C [4]: 107% | viability, T/C [5]: 95% | viability, T/C [6]: 92.1% | viability, T/C [7]: 103% | viability, T/C [8]: 98.7% | viability, T/C [9]: 101% | viability, T/C [10]: 109% | viability, T/C [11]: 94.4% | viability, T/C [12]: 101% | viability, T/C [13]: 103% | viability, T/C [14]: 100% | viability, T/C [15]: 98.4% | viability, T/C [16]: 108% | viability, T/C [17]: 102% | viability, T/C [18]: 97.1% | viability, T/C [19]: 103% | viability, T/C [20]: 106% | viability, T/C [21]: 102% | viability, T/C [22]: 103% | viability, T/C [23]: 98.8% | viability, T/C [24]: 98.8% | viability, T/C [25]: 94% | viability, T/C [26]: 106% | viability, T/C [27]: 98.4% | viability, T/C [28]: 98.3% | viability, T/C [29]: 103% | viability, T/C [30]: 95.2% | viability, T/C [31]: 97.9% | viability, T/C [32]: 91.4% | viability, T/C [33]: 95.3% | viability, T/C [34]: 98.3% | viability, T/C [35]: 97.5% | viability, T/C [36]: 83.6%

CCc1cc2c(N3CCc4c(cc(Cn5ccnc5)cc4-c4cn(C)nc4C(F)(F)F)C3=O)cc(C)nc2c(OC)n1 + COC1C(OC(N)=O)C(O)C(Oc2ccc3c(O)c(NC(=O)c4ccc(O)c(CC=C(C)C)c4)c(=O)oc3c2C)OC1(C)C
IC50 (second compound 0.0316 µM): > 10 µM | IC50 (second compound 0.1 µM): > 10 µM | IC50 (second compound 0.316 µM): > 10 µM | IC50 (second compound 1 µM): > 10 µM | IC50 (second compound 3.16 µM): > 10 µM | IC50 (second compound 10 µM): > 10 µM | viability, T/C [1]: 104% | viability, T/C [2]: 103% | viability, T/C [3]: 98.8% | viability, T/C [4]: 102% | viability, T/C [5]: 95.4% | viability, T/C [6]: 91.4% | viability, T/C [7]: 102% | viability, T/C [8]: 101% | viability, T/C [9]: 91.7% | viability, T/C [10]: 95.2% | viability, T/C [11]: 92.7% | viability, T/C [12]: 94.3% | viability, T/C [13]: 95.5% | viability, T/C [14]: 93.9% | viability, T/C [15]: 102% | viability, T/C [16]: 97.7% | viability, T/C [17]: 94.9% | viability, T/C [18]: 101% | viability, T/C [19]: 99.4% | viability, T/C [20]: 105% | viability, T/C [21]: 103% | viability, T/C [22]: 95.7% | viability, T/C [23]: 94.3% | viability, T/C [24]: 93.3% | viability, T/C [25]: 93.1% | viability, T/C [26]: 101% | viability, T/C [27]: 96.6% | viability, T/C [28]: 90.4% | viability, T/C [29]: 95.7% | viability, T/C [30]: 94.4% | viability, T/C [31]: 105% | viability, T/C [32]: 94.4% | viability, T/C [33]: 93.6% | viability, T/C [34]: 91.2% | viability, T/C [35]: 95.7% | viability, T/C [36]: 83.8%
